{"source": "patent US20140315972A1", "about": "“RS)-2-(2-oxo-4-phenylpyrrolidin-1-yl)acetamide compound having modulatory activity with a commensurate effect, pharmaceutical substance (variants) and its application, composition (variants) thereof” (priority 2011, published 2014)", "key": {"[1]": {"system": "MDA (malondialdehyde)", "experiment": "Plasma TBA-MDA under negative stress (Ns, Ds)", "type": "in vivo, rats", "settings": "for km % vs experimental control (saline): Ds seven days + 200 mg/kg, listed as Phenotropil"}, "[2]": {"system": "mice", "experiment": "Hyperkinesis induced by 5-oxytryptophan (negative symptoms of schizophrenia)", "type": "in vivo", "settings": "for Number of shakings: mice, 5-oxytryptophan 300 mg/kg i.p.", "protocol": "(§1) Studies have been conducted on white outbred male mice (18-24 g), in comparison with the olanzapine (Zyprexa) with intraperitoneal injection.\nPhenotropil in all studied doses reduced hyperkinesia (head shakings): at doses of 100 mg/kg—by 88%, at 200 mg/kg—by 87%, and at 300 mg/kg—by 89%. […] Effect of Phenotropil on serotonergic system requires more detailed testing and studies of lower doses, since there is no reason to exclude neuroleptic activity in this test. Preventive or proactive (protective) use of lower doses may be appropriate also in dopaminergic pathology."}, "[3]": {"system": "mice", "experiment": "Haloperidol-induced catalepsy", "type": "in vivo", "settings": "for decrease of catalepsy severity vs control: 300 mg/kg; for Catalepsy: mice", "protocol": "Duration of catalepsy was measured in seconds, after 60, 120 and 180 minutes after the drug administration. Phenotropil was administered intraperitoneally at doses of 50, 100 and 300 mg/kg 15 minutes after haloperidol 0.5 mg/kg. Haloperidol induced catalepsy growing over time. […] At a dose of 50 mg/kg, duration of the catalepsy after 180 min was only 4.8 seconds as compared to controls (63.4 seconds). […] Phenotropil markedly counteracts haloperidol-induced catalepsy, indicating its antiparkinsonian activity."}, "[4]": {"system": "women", "experiment": "Migraine attacks, intranasal drops", "type": "in vivo, human", "protocol": "Table 27 presents the results of studies in women (22-35 years) diagnosed with migraine without aura (simple migraine)—5 subjects, and migraine with aura (classic migraine)—5 subjects. Phenotropil as used as nasal drops (0.1% sterile solution), 10 drops three times a day for 7 days for the purpose of relief and prevention of migraine attacks at onset of prodromal phenomena and aura episodes. 5 drops of the solution were administered into each nostril. One drop of the 0.1% standard solution contained 0.05 mg of Phenotropil."}, "[5]": {"system": "influenza", "experiment": "Respiratory viral infection (influenza) of mice during life duration study", "type": "in vivo", "settings": "influenza outbreak"}, "[6]": {"system": "mice", "experiment": "Maximum life span (MLS) of mice", "type": "in vivo", "settings": "for The maximum life span (number of days in %): mice, change vs untreated control = 100", "protocol": "The maximum life span (MLS) of mice according to our long-term statistical observations is 2.7-3, 2 years, i.e. in average 2.95 years or 1077 days. For this study we selected mice (10 individuals per group), males with dominant behavior in mixed groups, that safely survived to 985 days without signs of pronounced senility and with satisfactory orientation-exploratory behavior, determined by the “open field test” method. Phenotropil in doses of 25, 50 and 100 mg/kg was administered orally with 5.0% glucose solution. Glucose solution was used solely to improve the solubility of the drug. One control group received the glucose solution and the second one—distilled water. The third control group was not treated."}, "[7]": {"system": "mice", "experiment": "Apomorphine verticalization (positive symptoms of schizophrenia)", "type": "in vivo", "settings": "for Intensity of verticalization in points: mice, apomorphine 2 mg/kg s.c.", "protocol": "as §1\nIn the model of positive symptoms of schizophrenia associated with hyperactivation of the dopamine systems, which allows to identify the ability of substances to block the dopaminergic transmission in the mesolimbic system of the brain, Phenotropil (100, 200, and 300 mg/kg) reduced the apomorphine-induced (2 mg/kg subcutaneously) verticalization intensity scores (Table 4) by 45%, by 2.0 and 2.6 times, respectively."}, "[8]": {"settings": "August rats, single Ns-exposure + 200 mg/kg"}, "[9]": {"settings": "Wistar rats, single Ns-exposure + 200 mg/kg"}, "[10]": {"settings": "0.1% nasal drops, 10 drops three times a day 7 days"}, "[11]": {"settings": "migraine attacks, humans, intranasally 0.5 mg × 3 times per day"}}, "note": "Several values for one entry are separate records, joined by “and”; a condition that tells them apart may be missing. Identical values can stand only once. Marks after values point to notes of the source that are not given here."}
{"smiles": "NC(=O)CN1CC(c2ccccc2)CC1=O", "note": "(racemic) [Compound 1, (RS)-2-(2-oxo-4-phenylpyrrolidine-1-yl)acetamide]", "values": [{"measurement": "Optical density of the samples vs control", "setting": "[1]; August rats, 200 mg/kg single, no Ns", "value": "+188.4 * %"}, {"measurement": "km % vs outbred group", "setting": "[1]; August rats, 200 mg/kg, normal conditions", "value": 0, "unit": "%"}, {"measurement": "increase of plasma MDA concentration vs baseline control", "setting": "[1]; August rats, exposure to Ns", "value": 2.2, "unit": "times"}, {"measurement": "plasma MDA higher than with Phenotropil without Ns", "setting": "[1]; August rats, exposure to Ns", "value": 17.0, "unit": "%"}, {"measurement": "MDA content vs control", "setting": "[1]; [8]", "value": "+223.0 * %"}, {"measurement": "Optical density of the samples vs control", "setting": "[1]; [8]", "value": "+220.3 * %"}, {"measurement": "km % vs outbred group", "setting": "[1]; August rats, three-time Ns + 200 mg/kg", "value": "+27.8% *"}, {"measurement": "Optical density of the samples vs control", "setting": "[1]; Wistar rats, 200 mg/kg single, no Ns", "value": "+66.5 * %"}, {"measurement": "km % vs outbred group", "setting": "[1]; Wistar rats, 200 mg/kg, normal conditions", "value": 0, "unit": "%"}, {"measurement": "km % vs experimental control (saline)", "setting": "[1]; Wistar rats, 200 mg/kg", "value": "−65.6% and −65.6 *** %"}, {"measurement": "reduction of MDA level vs baseline control without stress", "setting": "[1]; Wistar rats, exposure to Ns", "value": 6.0, "unit": "%"}, {"measurement": "MDA content vs control", "setting": "[1]; [9]", "value": "−6.0 * %"}, {"measurement": "Optical density of the samples vs control", "setting": "[1]; [9]", "value": "−6.0 * %"}, {"measurement": "km % vs outbred group", "setting": "[1]; Wistar rats, three-time Ns + 200 mg/kg", "value": "−33.3", "unit": "% *"}, {"measurement": "km % vs experimental control (saline)", "setting": "[1]; outbred rats, 200 mg/kg", "value": "−73.0% and −73.0 *** %"}, {"measurement": "increase of species reserve of stability (intra-species Kt) in acute Ns-state", "setting": "[1]; rats, during treatment", "value": 12.5, "unit": "%"}, {"measurement": "activation in August relative to Wistar strain", "setting": "[1]; single injection, no stress", "value": 2.9, "unit": "times"}, {"measurement": "reduction of hyperkinesia (head shakings)", "setting": "[2]; 100 mg/kg", "value": 88, "unit": "%"}, {"measurement": "reduction of hyperkinesia (head shakings)", "setting": "[2]; 200 mg/kg", "value": 87, "unit": "%"}, {"measurement": "reduction of hyperkinesia (head shakings)", "setting": "[2]; 300 mg/kg", "value": 89, "unit": "%"}, {"measurement": "Number of shakings", "setting": "[2]; 100 mg/kg", "value": "1.4 ± 0.5"}, {"measurement": "Number of shakings", "setting": "[2]; 200 mg/kg", "value": "1.5 ± 0.8"}, {"measurement": "Number of shakings", "setting": "[2]; 300 mg/kg", "value": "1.2 ± 0.5"}, {"measurement": "decrease of catalepsy severity vs control", "setting": "[3]; 180 minutes", "value": "decreased threefold"}, {"measurement": "decrease of catalepsy severity vs control", "setting": "[3]; after the 60 min point", "value": 2.6, "unit": "times"}, {"measurement": "Catalepsy", "setting": "[3]; haloperidol 0.5 mg/kg + 50 mg/kg i.p., 120 min", "value": "8.5 ± 3.5", "unit": "s"}, {"measurement": "Catalepsy", "setting": "[3]; haloperidol 0.5 mg/kg + 50 mg/kg i.p., 180 min, listed as Phenotropil", "value": "4.8 s and 4.8 ± 2.1 s"}, {"measurement": "Catalepsy", "setting": "[3]; haloperidol 0.5 mg/kg + 100 mg/kg i.p., 120 min", "value": "2.0 ± 1.0", "unit": "s"}, {"measurement": "Catalepsy", "setting": "[3]; haloperidol 0.5 mg/kg + 100 mg/kg i.p., 180 min", "value": "0.0 ± 0.0", "unit": "s"}, {"measurement": "Catalepsy", "setting": "[3]; haloperidol 0.5 mg/kg + 300 mg/kg i.p., 60 min", "value": "6.6 ± 1.9", "unit": "s"}, {"measurement": "Catalepsy", "setting": "[3]; haloperidol 0.5 mg/kg + 300 mg/kg i.p., 120 min", "value": "10.6 ± 4.5", "unit": "s"}, {"measurement": "Catalepsy", "setting": "[3]; haloperidol 0.5 mg/kg + 300 mg/kg i.p., 180 min", "value": "21.4 ± 8.4", "unit": "s"}, {"measurement": "patients (of 10) with headaches and their duration decreased significantly", "setting": "[4]; [10]", "value": 3}, {"measurement": "patients (of 10) with no effect", "setting": "[4]; [10]", "value": 2}, {"measurement": "patients (of 10) with prodrome and aura completely stopped without headache attacks", "setting": "[4]; [10]", "value": 5}, {"measurement": "Efficacy: % of subjects with no effect", "setting": "[4]; [11]", "value": 20, "unit": "%"}, {"measurement": "Efficacy: % of subjects with partial effect", "setting": "[4]; [11]", "value": 30, "unit": "%"}, {"measurement": "Efficacy: subjects with 100% efficacy", "setting": "[4]; [11]", "value": "5/10 - 100% efficacy ^"}, {"measurement": "Efficacy: subjects with no effect", "setting": "[4]; [11]", "value": "2/10"}, {"measurement": "Efficacy: subjects with partial effect", "setting": "[4]; [11]", "value": "3/10"}, {"measurement": "surviving mice that did not get sick", "setting": "[5]", "value": 46, "unit": "%"}, {"measurement": "surviving mice that had been ill but survived", "setting": "[5]", "value": 54, "unit": "%"}, {"measurement": "mice died, total in treated groups", "setting": "[5]; all control animals died", "value": 15, "unit": "%"}, {"measurement": "increase of maximum life span", "setting": "[6]; 25 mg/kg", "value": 23.3, "unit": "%"}, {"measurement": "increase of maximum life span", "setting": "[6]; 100 mg/kg", "value": 24.0, "unit": "%"}, {"measurement": "increase of life span, average of all experimental groups", "setting": "[6]; male mice aged 985 days, 25, 50, 100 mg/kg orally", "value": 22.0, "unit": "%"}, {"measurement": "The maximum life span (number of days in %)", "setting": "[6]; 25 mg/kg + 5.0% glucose solution", "value": "+20.1 * %"}, {"measurement": "The maximum life span (number of days in %)", "setting": "[6]; 50 mg/kg + 5.0% glucose solution", "value": "+15.0 * %"}, {"measurement": "The maximum life span (number of days in %)", "setting": "[6]; 100 mg + 5.0% glucose solution", "value": "+20.8 * %"}, {"measurement": "reduction of verticalization intensity", "setting": "[7]; 1 mg/kg", "value": 26, "unit": "%"}, {"measurement": "reduction of verticalization intensity", "setting": "[7]; 10 mg/kg", "value": 66.5, "unit": "%"}, {"measurement": "reduction of verticalization intensity", "setting": "[7]; 100 mg/kg", "value": 45, "unit": "%"}, {"measurement": "reduction of verticalization intensity", "setting": "[7]; 200 mg/kg", "value": 2.0, "unit": "times"}, {"measurement": "reduction of verticalization intensity", "setting": "[7]; 300 mg/kg", "value": 2.6, "unit": "times"}, {"measurement": "Intensity of verticalization in points", "setting": "[7]; 100 mg/kg i.p.", "value": "27 ± 8.7", "unit": "points"}, {"measurement": "Intensity of verticalization in points", "setting": "[7]; 200 mg/kg i.p.", "value": "25 ± 5.1", "unit": "points"}, {"measurement": "Intensity of verticalization in points", "setting": "[7]; 300 mg/kg i.p.", "value": "19 ± 5.1", "unit": "points"}]}
